Assays:
[1] = molecular target: Cytochrome P450 2C19 (Homo sapiens, UniProt P33261)
[2] = molecular target: Cytochrome P450 2C9 (Homo sapiens, UniProt P11712)
[3] = molecular target: T1, Androgen receptor (Rattus norvegicus, UniProt P15207)
T1 sequence (P15207 whole entry): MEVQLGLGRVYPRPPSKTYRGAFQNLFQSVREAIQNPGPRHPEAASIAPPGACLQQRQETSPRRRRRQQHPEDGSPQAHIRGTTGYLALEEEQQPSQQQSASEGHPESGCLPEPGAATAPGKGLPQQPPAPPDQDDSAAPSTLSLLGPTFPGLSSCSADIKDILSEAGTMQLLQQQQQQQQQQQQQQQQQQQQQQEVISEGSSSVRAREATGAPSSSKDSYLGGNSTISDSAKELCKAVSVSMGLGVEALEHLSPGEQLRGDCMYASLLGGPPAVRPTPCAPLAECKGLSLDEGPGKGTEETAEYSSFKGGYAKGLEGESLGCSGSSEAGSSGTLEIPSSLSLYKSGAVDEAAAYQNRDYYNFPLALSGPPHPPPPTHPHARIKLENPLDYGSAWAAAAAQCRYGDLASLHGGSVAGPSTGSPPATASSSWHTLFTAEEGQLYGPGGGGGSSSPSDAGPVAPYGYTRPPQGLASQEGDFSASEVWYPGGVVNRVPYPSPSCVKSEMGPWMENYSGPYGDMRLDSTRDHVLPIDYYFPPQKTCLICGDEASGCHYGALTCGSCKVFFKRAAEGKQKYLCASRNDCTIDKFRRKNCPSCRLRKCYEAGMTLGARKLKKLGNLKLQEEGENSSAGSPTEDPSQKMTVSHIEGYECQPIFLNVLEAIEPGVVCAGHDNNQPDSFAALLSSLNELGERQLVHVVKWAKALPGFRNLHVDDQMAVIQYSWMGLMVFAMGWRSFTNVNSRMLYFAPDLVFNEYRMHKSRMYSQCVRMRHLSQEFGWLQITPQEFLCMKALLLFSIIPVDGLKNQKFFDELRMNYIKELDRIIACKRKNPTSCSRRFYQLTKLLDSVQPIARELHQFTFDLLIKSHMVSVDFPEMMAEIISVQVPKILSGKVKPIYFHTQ

[4] = molecular target: Cytochrome P450 2D6 (Homo sapiens, UniProt P10635)
Sequence of Cytochrome P450 2D6 (P10635 whole entry): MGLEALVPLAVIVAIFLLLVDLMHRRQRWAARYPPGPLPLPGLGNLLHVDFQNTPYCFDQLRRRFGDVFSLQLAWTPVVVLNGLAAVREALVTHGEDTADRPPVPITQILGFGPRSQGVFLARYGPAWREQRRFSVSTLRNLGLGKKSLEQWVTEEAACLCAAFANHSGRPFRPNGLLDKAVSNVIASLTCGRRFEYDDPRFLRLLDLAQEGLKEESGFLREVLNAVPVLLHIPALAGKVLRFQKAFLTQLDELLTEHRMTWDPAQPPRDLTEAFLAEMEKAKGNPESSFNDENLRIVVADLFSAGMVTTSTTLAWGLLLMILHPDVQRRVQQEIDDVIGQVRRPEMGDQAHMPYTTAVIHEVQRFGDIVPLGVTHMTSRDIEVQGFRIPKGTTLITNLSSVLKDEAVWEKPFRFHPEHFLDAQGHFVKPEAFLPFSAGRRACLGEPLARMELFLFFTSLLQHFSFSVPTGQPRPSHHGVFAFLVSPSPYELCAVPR

[5] = molecular target: Cytochrome P450 2E1 (Homo sapiens, UniProt P05181)
Sequence of Cytochrome P450 2E1 (P05181 whole entry): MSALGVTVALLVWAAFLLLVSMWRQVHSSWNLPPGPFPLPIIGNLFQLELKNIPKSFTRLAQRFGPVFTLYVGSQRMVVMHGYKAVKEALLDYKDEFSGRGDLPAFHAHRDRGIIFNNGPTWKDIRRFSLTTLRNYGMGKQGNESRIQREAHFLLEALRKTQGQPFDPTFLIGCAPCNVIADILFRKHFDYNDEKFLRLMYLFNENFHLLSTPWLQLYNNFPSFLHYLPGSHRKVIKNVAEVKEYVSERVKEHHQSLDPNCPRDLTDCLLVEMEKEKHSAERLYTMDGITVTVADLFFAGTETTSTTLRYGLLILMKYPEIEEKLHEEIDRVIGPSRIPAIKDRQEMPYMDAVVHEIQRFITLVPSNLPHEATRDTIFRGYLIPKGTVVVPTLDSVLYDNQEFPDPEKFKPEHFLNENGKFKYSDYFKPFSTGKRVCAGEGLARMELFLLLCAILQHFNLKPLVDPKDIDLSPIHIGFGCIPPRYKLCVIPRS

[6] = molecular target: Cytochrome P450 3A4 (Homo sapiens, UniProt P08684)
Sequence of Cytochrome P450 3A4 (P08684 whole entry): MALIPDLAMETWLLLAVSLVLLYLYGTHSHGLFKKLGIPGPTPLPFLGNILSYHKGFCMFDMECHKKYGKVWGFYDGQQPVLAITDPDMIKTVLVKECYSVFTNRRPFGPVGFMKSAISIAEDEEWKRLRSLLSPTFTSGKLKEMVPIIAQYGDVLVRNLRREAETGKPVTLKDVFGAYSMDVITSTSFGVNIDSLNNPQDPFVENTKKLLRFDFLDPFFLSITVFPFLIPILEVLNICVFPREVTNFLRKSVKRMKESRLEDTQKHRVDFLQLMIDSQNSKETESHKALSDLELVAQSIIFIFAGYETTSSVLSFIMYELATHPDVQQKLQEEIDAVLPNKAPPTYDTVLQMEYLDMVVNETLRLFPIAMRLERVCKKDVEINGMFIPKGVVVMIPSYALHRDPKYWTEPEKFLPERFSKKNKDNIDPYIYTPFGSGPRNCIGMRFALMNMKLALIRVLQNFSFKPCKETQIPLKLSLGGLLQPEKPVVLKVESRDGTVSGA

[7] = molecular target: T2, Glucocorticoid receptor (Homo sapiens, UniProt P04150); assay: biochemical
T2 sequence (P04150 whole entry): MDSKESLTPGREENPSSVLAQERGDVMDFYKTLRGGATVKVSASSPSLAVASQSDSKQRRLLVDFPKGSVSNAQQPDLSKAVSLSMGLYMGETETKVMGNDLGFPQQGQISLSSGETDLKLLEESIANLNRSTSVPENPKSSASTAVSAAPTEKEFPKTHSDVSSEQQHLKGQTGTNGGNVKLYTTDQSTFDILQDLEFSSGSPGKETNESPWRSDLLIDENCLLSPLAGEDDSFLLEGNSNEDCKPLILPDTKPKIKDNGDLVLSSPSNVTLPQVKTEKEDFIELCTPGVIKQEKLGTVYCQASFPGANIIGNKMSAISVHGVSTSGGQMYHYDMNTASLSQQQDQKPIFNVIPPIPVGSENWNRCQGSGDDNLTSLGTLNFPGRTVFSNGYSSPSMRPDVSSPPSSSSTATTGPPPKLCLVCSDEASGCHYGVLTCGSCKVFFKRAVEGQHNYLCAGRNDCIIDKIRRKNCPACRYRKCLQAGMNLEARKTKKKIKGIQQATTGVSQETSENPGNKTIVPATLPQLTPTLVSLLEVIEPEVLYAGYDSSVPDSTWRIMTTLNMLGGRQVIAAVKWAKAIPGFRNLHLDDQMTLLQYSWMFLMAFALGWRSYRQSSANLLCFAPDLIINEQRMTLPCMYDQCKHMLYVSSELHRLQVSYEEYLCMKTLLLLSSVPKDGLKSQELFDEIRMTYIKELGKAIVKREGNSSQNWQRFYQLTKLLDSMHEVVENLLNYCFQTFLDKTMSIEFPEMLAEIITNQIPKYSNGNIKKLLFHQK

Sequence of Cytochrome P450 2C19 (P33261 whole entry): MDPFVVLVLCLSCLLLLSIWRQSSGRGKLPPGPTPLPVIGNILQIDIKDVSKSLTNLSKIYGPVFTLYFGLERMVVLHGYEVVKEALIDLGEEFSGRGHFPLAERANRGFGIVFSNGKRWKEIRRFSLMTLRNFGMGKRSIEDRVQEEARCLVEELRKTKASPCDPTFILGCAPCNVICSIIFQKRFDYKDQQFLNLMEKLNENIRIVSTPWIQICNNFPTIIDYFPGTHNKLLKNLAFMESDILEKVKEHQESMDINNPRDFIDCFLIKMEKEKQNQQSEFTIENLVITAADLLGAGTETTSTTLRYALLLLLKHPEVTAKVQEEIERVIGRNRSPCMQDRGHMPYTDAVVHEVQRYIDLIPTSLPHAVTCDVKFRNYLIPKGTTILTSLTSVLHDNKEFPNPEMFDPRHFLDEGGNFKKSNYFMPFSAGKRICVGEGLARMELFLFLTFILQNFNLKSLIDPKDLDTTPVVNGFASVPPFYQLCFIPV
Sequence of Cytochrome P450 2C9 (P11712 whole entry): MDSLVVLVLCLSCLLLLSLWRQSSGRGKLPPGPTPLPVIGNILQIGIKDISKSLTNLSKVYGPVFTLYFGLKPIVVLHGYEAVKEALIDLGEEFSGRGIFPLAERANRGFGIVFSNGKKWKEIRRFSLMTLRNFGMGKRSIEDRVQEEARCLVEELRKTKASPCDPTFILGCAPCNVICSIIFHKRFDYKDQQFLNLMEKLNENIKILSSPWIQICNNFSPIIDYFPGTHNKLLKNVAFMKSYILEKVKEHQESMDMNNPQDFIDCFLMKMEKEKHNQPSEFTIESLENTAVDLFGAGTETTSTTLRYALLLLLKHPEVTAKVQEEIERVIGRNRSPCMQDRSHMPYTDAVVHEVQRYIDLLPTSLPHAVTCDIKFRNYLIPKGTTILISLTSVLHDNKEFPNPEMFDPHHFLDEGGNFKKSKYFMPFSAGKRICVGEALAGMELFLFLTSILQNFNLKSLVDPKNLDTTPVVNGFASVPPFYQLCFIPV

Compound: O=C(c1ccccc1F)N1CCC(Cc2ccccc2)CC1
- IC50 [1]: 500 nM
- IC50 [2]: 2000 nM

Compound: Cc1c(O)cccc1C(=O)N[C@@H](CSc1ccccc1)[C@H](O)CN1C[C@H]2CCCC[C@H]2C[C@H]1C(=O)NC(C)(C)C
- IC50 [3]: 36400 nM
- Ki [3]: 24300 nM

Compound: CC(O)COC[C@H]1O[C@@H]2O[C@H]3[C@H](O)[C@@H](O)[C@@H](O[C@H]4[C@H](O)[C@@H](O)[C@@H](O[C@H]5[C@H](O)[C@@H](O)[C@@H](O[C@H]6[C@H](O)[C@@H](O)[C@@H](O[C@H]7[C@H](O)[C@@H](O)[C@@H](O[C@H]8[C@H](O)[C@@H](O)[C@@H](O[C@H]1[C@H](O)[C@H]2O)O[C@@H]8COCC(C)O)O[C@@H]7COCC(C)O)O[C@@H]6COCC(C)O)O[C@@H]5COCC(C)O)O[C@@H]4COCC(C)O)O[C@@H]3COCC(C)O (stereo partly drawn) [2-HYDROXYPROPYL-BETA-CYCLODEXTRIN]
- IC50 [3]: 2160 nM
- Ki [3]: 1440 nM

Compound: CC[C@H]1[C@@H]2C[C@H]3[C@@H]4N(C)c5ccccc5[C@]45C[C@@H]([C@@H]2[C@H]5O)N3[C@@H]1O [AJMALINE]
- IC50 [4]: 1000 nM

Compound: ClC(Cl)(Cl)Cl [CARBON TETRACHLORIDE]
- IC50 [5]: 11000 nM

Compound: CN1CCN(C(c2ccccc2)c2ccccc2)CC1 [CYCLIZINE]
- IC50 [4]: 6220 nM

Compound: CC(C)C[C@H]1C(=O)N2CCC[C@H]2[C@]2(O)O[C@](NC(=O)[C@@H]3C=C4c5cccc6[nH]cc(c56)C[C@H]4N(C)C3)(C(C)C)C(=O)N12 [ERGOCRYPTINE]
- IC50 [6]: 600 nM
- IC50 [2]: 6000 nM

Compound: C[C@]12CC[C@@H]3c4ccc(O)cc4CC[C@H]3[C@@H]1C[C@@H](O)[C@@H]2O [ESTRIOL]
- IC50 [7]: 39300 nM
- Ki [7]: 17900 nM

Compound: C#C[C@]1(O)CC[C@H]2[C@@H]3CCC4=CC(=O)CC[C@]4(C)[C@H]3CC[C@@]21C [ETHISTERONE]
- IC50 [7]: 209 nM
- Ki [7]: 95 nM

Compound: CC(=O)OCC(=O)[C@@]12OC(C)(C)O[C@@H]1C[C@H]1[C@@H]3C[C@H](F)C4=CC(=O)C=C[C@]4(C)[C@@]3(F)[C@@H](O)C[C@@]12C [FLUOCINONIDE]
- IC50 [7]: 5.26 nM
- Ki [7]: 2.39 nM

Compound: COc1ccc2c(c1OC)C(=O)O[C@@H]2[C@H]1c2c(cc3c(c2OC)OCO3)CCN1C [NOSCAPINE]
- IC50 [1]: 400 nM
- IC50 [2]: 8180 nM

Compound: NNCCc1ccccc1 [PHENELZINE]
- IC50 [1]: 800 nM
- IC50 [2]: 4000 nM
- IC50 [4]: 1000 nM

Compound: C[C@]12C=CC(=O)C=C1CC[C@H]1[C@@H]3C[C@@H](O)[C@](O)(C(=O)CO)[C@@]3(C)C[C@H](O)[C@@]12F [TRIAMCINOLONE]
- IC50 [7]: 58 nM
- Ki [7]: 26 nM
